Source: patent US20160296511A1, “LAQUINIMOD FOR REDUCING THALAMIC DAMAGE IN MULTIPLE SCLEROSIS” (Teva Pharmaceutical Industries, Ltd., priority 2012, published 2016)

Tests used:
subjects with RRMS [1] = experiment: ALLEGRO sub-study: 1H-MRS, NAA/Cr ratio in WM; assay type: in vivo, human; details: at 24 months; difference vs placebo not statistically significant (p=0.179), N=27
Description: • 1. Frequent MRI (selected countries and sites only): The cumulative number of T1-Gd enhancing lesions taken from scans obtained at months 0, 3, 6, 12, and 24, and in case the study is be extended, 30. Additional MRIs for the ancillary study are performed at months 3 and 6. • 2. Magnetization Transfer (MT) (selected countries and sites only): the change from baseline to month 12 and 24/30 months in magnetization transfer MRI. MT was assessed at months 0 (baseline), 12 and 24 (termination/early discontinuation). In case of the 6 months extended study, the last MT was performed at month 30 (termination/early discontinuation of the extended study) instead of month 24. • 3. Proton MR Spectroscopy (^1H-MRS) (selected countries and sites only): Change from baseline to 24/30 in ^1H-MRS metabolites. ^1H-MRS was assessed at months 0 (baseline), and 24 (termination/early discontinuation). In case of the 6 months extended study, the last ^1H-MRS was performed at month 30 (termination/early discontinuation of the extended study) instead of month 24. • 4. Pharmacogenetic (PGx) assessment: Blood samples for PGx parameters were collected from all subjects at screening. • 5. […] Changes in NAA/Cr from baseline to month 24 was analyzed using ANCOVA.

RRMS patients = details: cited from earlier work
subjects with RRMS [2] = experiment: ALLEGRO sub-study: MT MRI, magnetization transfer ratio (MTR) of NABT, WM, GM and T2 lesions; assay type: in vivo, human; details: for Average MTR of T2 lesions, LS mean (SE) change / GM MTR, LS mean (SE) change / NABT MTR, LS mean (SE) change / WM MTR, LS mean (SE) change: 0.6 mg; for Average MTR of T2 lesions, treatment difference (95% CI) / GM MTR, treatment difference (95% CI) / NABT MTR, treatment difference (95% CI) / WM MTR, treatment difference (95% CI): laquinimod 0.6 mg vs placebo
Description: • 1. Frequent MRI (selected countries and sites only): The cumulative number of T1-Gd enhancing lesions taken from scans obtained at months 0, 3, 6, 12, and 24, and in case the study is be extended, 30. Additional MRIs for the ancillary study are performed at months 3 and 6. • 2. Magnetization Transfer (MT) (selected countries and sites only): the change from baseline to month 12 and 24/30 months in magnetization transfer MRI. MT was assessed at months 0 (baseline), 12 and 24 (termination/early discontinuation). In case of the 6 months extended study, the last MT was performed at month 30 (termination/early discontinuation of the extended study) instead of month 24. • 3. Proton MR Spectroscopy (^1H-MRS) (selected countries and sites only): Change from baseline to 24/30 in ^1H-MRS metabolites. ^1H-MRS was assessed at months 0 (baseline), and 24 (termination/early discontinuation). In case of the 6 months extended study, the last ^1H-MRS was performed at month 30 (termination/early discontinuation of the extended study) instead of month 24. • 4. Pharmacogenetic (PGx) assessment: Blood samples for PGx parameters were collected from all subjects at screening. • 5. Brain atrophy, as defined by the percentage of change from one scan to the subsequent scan in brain volume, in addition to the measurements done in the main study (Frequent MRI Cohort). • 6. Whole blood and serum samples (selected countries and sites only) were collected for evaluation of the immunological response to treatment with laquinimod and further investigation of the potential mechanism of action. Whole blood samples were collected at months: 0, 1, 3, 6, 12 and 24. Serum samples were collected at month: 0, 1, 6, 12 and 24 (even if the study is extended to month 30). • 7. Relationship between PGx and response to laquinimod in terms of clinical, MRI and safety parameters. Patients with valid baseline and month 12, and/or month 24 MT MRI assessments were included in the analysis. Least square (LS) mean changes from baseline MTR in NABT, WM, GM and T2-lesions at months 12 and 24, and between months 12 an 24, were evaluated using a MMRM analysis.

In the case of CCN(C(=O)c1c(O)c2c(Cl)cccc2n(C)c1=O)c1ccccc1 [Laquinimod], the “WM NAA/Cr ratio” value (subjects with RRMS [1]) is listed as “tended to increase”, the “Disability and brain atrophy progression” value (RRMS patients; 0.6 mg/day, RRMS patients) is listed as “slowed disability and brain atrophy progression” and the “Rate of whole brain atrophy compared with placebo” value (RRMS patients; ALLEGRO and BRAVO) is listed as “decreased the rate of whole brain atrophy”. For the same compound, the “Safety and tolerability profile” value (RRMS patients; two phase III trials) was “favorable safety and tolerability profile”, the “Average MTR of T2 lesions, LS mean (SE) change” value (“Average MTR … (SE) change” for short) (subjects with RRMS [2]; Baseline to Month 12) was 0.39 (0.25) and the “GM MTR, LS mean (SE) change” value (subjects with RRMS [2]; Baseline to Month 12) was 0.30 (0.13). The “NABT MTR, LS mean (SE) change” value (subjects with RRMS [2]; Baseline to Month 12) was 0.31 (0.12), the “WM MTR, LS mean (SE) change” value (subjects with RRMS [2]; Baseline to Month 12) was 0.32 (0.13) and the “Average MTR of T2 lesions, treatment difference (95% CI)” value (subjects with RRMS [2]; Baseline to Month 12) was 0.38 (−0.26, 1.01) p = 0.239. The “GM MTR, treatment difference (95% CI)” value (subjects with RRMS [2]; Baseline to Month 12) was 0.41 (0.08, 0.74) p = 0.014, the “NABT MTR, treatment difference (95% CI)” value (subjects with RRMS [2]; Baseline to Month 12) was 0.40 (0.09, 0.71) p = 0.013 and the “WM MTR, treatment difference (95% CI)” value (subjects with RRMS [2]; Baseline to Month 12) was 0.40 (0.09, 0.72) p = 0.013. For the same compound, the “Average MTR … (SE) change” value (subjects with RRMS [2]; Baseline to Month 24) was 0.46 (0.29), the “GM MTR, LS mean (SE) change” value (subjects with RRMS [2]; Baseline to Month 24) was 0.14 (0.16) and the “NABT MTR, LS mean (SE) change” value (subjects with RRMS [2]; Baseline to Month 24) was 0.23 (0.15). For the same compound, the “WM MTR, LS mean (SE) change” value (subjects with RRMS [2]; Baseline to Month 24) was 0.27 (0.16), the “Average MTR of T2 lesions, treatment difference (95% CI)” value (subjects with RRMS [2]; Baseline to Month 24) was 0.53 (−0.23, 1.28) p = 0.168 and the “GM MTR, treatment difference (95% CI)” value (subjects with RRMS [2]; Baseline to Month 24) was 0.47 (0.04, 0.90) p = 0.034. The “NABT MTR, treatment difference (95% CI)” value (subjects with RRMS [2]; Baseline to Month 24) was 0.50 (0.10, 0.89) p = 0.015, the “WM MTR, treatment difference (95% CI)” value (subjects with RRMS [2]; Baseline to Month 24) was 0.53 (0.13, 0.94) p = 0.011 and the “Average MTR … (SE) change” value (subjects with RRMS [2]; Month 12 to Month 24) was 0.07 (0.24). The “GM MTR, LS mean (SE) change” value (subjects with RRMS [2]; Month 12 to Month 24) was −0.16 (0.15), the “NABT MTR, LS mean (SE) change” value (subjects with RRMS [2]; Month 12 to Month 24) was −0.08 (0.14) and the “WM MTR, LS mean (SE) change” value (subjects with RRMS [2]; Month 12 to Month 24) was −0.05 (0.13). The “Average MTR of T2 lesions, treatment difference (95% CI)” value (subjects with RRMS [2]; Month 12 to Month 24) was 0.15 (−0.51, 0.81) p = 0.651, the “GM MTR, treatment difference (95% CI)” value (subjects with RRMS [2]; Month 12 to Month 24) was 0.06 (−0.37, 0.49) p = 0.787 and the “NABT MTR, treatment difference (95% CI)” value (subjects with RRMS [2]; Month 12 to Month 24) was 0.10 (−0.31, 0.50) p = 0.642. For the same compound, the “WM MTR, treatment difference (95% CI)” value (subjects with RRMS [2]; Month 12 to Month 24) was 0.13 (−0.24, 0.51) p = 0.486.
